# In ChEMBL document CHEMBL4052785, “Discovery of (R)-5-(benzo[d][1,3]dioxol-5-yl)-7-((1-(vinylsulfonyl)pyrrolidin-2-yl)methyl)-7H-pyrrolo[2,3-d]pyrimidin-4-amine (B6) as a potent Bmx inhibitor for the treatment of NSCLC” (Bioorg Med Chem Lett, 2017):
# Legend:
# [1] = target: Tyrosine-protein kinase BTK (Homo sapiens, UniProt Q06187); assay: Inhibition of recombinant human full length N-terminal His6-tagged BTK expressed in baculovirus Sf21 insect cells preincubated for 5 mins followed by LSNLYHQGKFLQT substrate addition after 30 to 60 mins in presence of ATP by fluorescence assay
# Homo sapiens [2] = species on record: Homo sapiens; assay: Selectivity ratio of IC50 for recombinant human N-terminal His6-tagged ITK (352 to 617 residues) to IC50 for human full length N-terminal His6-tagged BMX
# [3] = target: Tyrosine-protein kinase Yes (Homo sapiens, UniProt P07947); assay: Inhibition of recombinant human full length N-terminal His6-tagged YES expressed in baculovirus Sf21 insect cells preincubated for 5 mins followed by biotinyl-beta Abeta Abeta AYQAEENTYDEYEN substrate addition after 30 to 60 mins in presence of ATP by fluorescence assay
# Homo sapiens [4] = species on record: Homo sapiens; assay: Selectivity ratio of IC50 for recombinant human full length N-terminal His6-tagged SRC to IC50 for human full length N-terminal His6-tagged BMX
# [5] = target: Tyrosine-protein kinase JAK1 (Homo sapiens, UniProt P23458); assay: Inhibition of human JAK1 expressed in baculovirus in Sf21 insect cells preincubated for 5 mins followed by substrate addition after 30 to 60 mins in presence of ATP by fluorescence assay
# Homo sapiens [6] = species on record: Homo sapiens; assay: Selectivity ratio of IC50 for recombinant human N-terminal His6-tagged RIPK2 (1 to 299 residues) to IC50 for human full length N-terminal His6-tagged BMX
# Homo sapiens [7] = species on record: Homo sapiens; assay: Selectivity ratio of IC50 for recombinant human N-terminal His6-tagged FRK (218 to end residues) to IC50 for human full length N-terminal His6-tagged BMX
# Homo sapiens [8] = species on record: Homo sapiens; assay: Selectivity ratio of IC50 for recombinant human full length N-terminal His6-tagged BTK to IC50 for human full length N-terminal His6-tagged BMX
# [9] = target: Serine/threonine-protein kinase PLK1 (Homo sapiens, UniProt P53350); assay: Inhibition of recombinant human N-terminal His6-tagged PLK1 expressed in baculovirus Sf21 insect cells preincubated for 5 mins followed by substrate addition after 30 to 60 mins in presence of ATP by fluorescence assay
# Homo sapiens [10] = species on record: Homo sapiens; assay: Selectivity ratio of IC50 for recombinant human N-terminal His6-tagged JAK3 (781 to end residues) to IC50 for human full length N-terminal His6-tagged BMX
# [11] = target: Tyrosine-protein kinase Lck (Homo sapiens, UniProt P06239); assay: Inhibition of recombinant human full length N-terminal His6-tagged LCK expressed in Sf21 insect cells preincubated for 5 mins followed by substrate addition after 30 to 60 mins in presence of ATP by fluorescence assay
# HCC827 = assay: Antiproliferative activity against human HCC827 cells harboring EGFR Del19 mutant after 72 hrs by MTT assay; assay type: functional, cell-based; settings: HCC827, 72 h
# NCI-H1975 = assay: Antiproliferative activity against human NCI-H1975 cells harboring EGFR L858R/T790M mutant after 72 hrs by MTT assay; assay type: functional, cell-based; settings: NCI-H1975, 72 h
# [12] = target: Tyrosine-protein kinase ITK/TSK (Homo sapiens, UniProt Q08881); assay: Inhibition of recombinant human N-terminal His6-tagged ITK (352 to 617 residues) expressed in baculovirus Sf21 insect cells preincubated for 5 mins followed by Ulight-TK peptide substrate addition after 30 to 60 mins in presence of ATP by fluorescence assay
# [13] = target: Tyrosine-protein kinase TXK (Homo sapiens, UniProt P42681); assay: Inhibition of recombinant human N-terminal His6-tagged TXK (256 to end residues) expressed in baculovirus Sf21 insect cells preincubated for 5 mins followed by substrate addition after 30 to 60 mins in presence of ATP by fluorescence assay
# Mus musculus = assay: Toxicity in nude mouse xenografted with human NCI-H1975 cells assessed as abnormal behavior at 25 mg/kg administered qd via oral gavage for 18 days measured on day 14; assay type: organism-based; settings: in vivo, 432 h
# Homo sapiens [14] = species on record: Homo sapiens; assay: Selectivity ratio of IC50 for human PDGFRalpha to IC50 for human full length N-terminal His6-tagged BMX
# Homo sapiens [15] = species on record: Homo sapiens; assay: Selectivity ratio of IC50 for recombinant human full length N-terminal His6-tagged SYK to IC50 for human full length N-terminal His6-tagged BMX
# [16] = target: Tyrosine-protein kinase Fer (Homo sapiens, UniProt P16591); assay: Inhibition of recombinant human N-terminal His6-tagged FER (541 to end residues) expressed in baculovirus Sf21 insect cells preincubated for 5 mins followed by substrate addition after 30 to 60 mins in presence of ATP by fluorescence assay
# Homo sapiens [17] = species on record: Homo sapiens; assay: Selectivity ratio of IC50 for recombinant human full length N-terminal GST-tagged CSK to IC50 for human full length N-terminal His6-tagged BMX
# Homo sapiens [18] = species on record: Homo sapiens; assay: Selectivity ratio of IC50 for human JAK1 to IC50 for human full length N-terminal His6-tagged BMX
# Homo sapiens [19] = species on record: Homo sapiens; assay: Selectivity ratio of IC50 for RSK1 (unknown origin) to IC50 for human full length N-terminal His6-tagged BMX
# Homo sapiens [20] = species on record: Homo sapiens; assay: Selectivity ratio of IC50 for recombinant human C-terminal His6-tagged JAK2 (808 to end residues) to IC50 for human full length N-terminal His6-tagged BMX
# [21] = target: Serine/threonine-protein kinase Nek2 (Homo sapiens, UniProt P51955); assay: Inhibition of recombinant human full length N-terminal His6-tagged NEK2 expressed in baculovirus Sf21 insect cells preincubated for 5 mins followed by substrate addition after 30 to 60 mins in presence of ATP by fluorescence assay
# [22] = target: Ribosomal protein S6 kinase alpha-1 (Homo sapiens, UniProt Q15418); assay: Inhibition of RSK1 (unknown origin) preincubated for 5 mins followed by substrate addition after 30 to 60 mins in presence of ATP by fluorescence assay
# [23] = target: Tyrosine-protein kinase JAK3 (Homo sapiens, UniProt P52333); assay: Inhibition of recombinant human N-terminal His6-tagged JAK3 (781 to end residues) expressed in baculovirus Sf21 insect cells preincubated for 5 mins followed by substrate addition after 30 to 60 mins in presence of ATP by fluorescence assay
# [24] = target: Tyrosine-protein kinase CSK (Homo sapiens, UniProt P41240); assay: Inhibition of recombinant human full length N-terminal GST-tagged CSK expressed in Escherichia coli BL21 (DE3) cells preincubated for 5 mins followed by biotinyl-beta Abeta Abeta AEEEPQYEEIPIYLELLP substrate addition after 30 to 60 mins in presence of ATP by fluorescence assay
# Homo sapiens [25] = species on record: Homo sapiens; assay: Selectivity ratio of IC50 for recombinant human N-terminal His6-tagged FER (541 to end residues) to IC50 for human full length N-terminal His6-tagged BMX
# Homo sapiens [26] = species on record: Homo sapiens; assay: Selectivity ratio of IC50 for recombinant human full length N-terminal His6-tagged BRK to IC50 for human full length N-terminal His6-tagged BMX
# Homo sapiens [27] = species on record: Homo sapiens; assay: Selectivity ratio of IC50 for recombinant human full length N-terminal His6-tagged NEK2 to IC50 for human full length N-terminal His6-tagged BMX
# Serine/threonine-protein kinase Nek2, sequence (P51955 whole entry): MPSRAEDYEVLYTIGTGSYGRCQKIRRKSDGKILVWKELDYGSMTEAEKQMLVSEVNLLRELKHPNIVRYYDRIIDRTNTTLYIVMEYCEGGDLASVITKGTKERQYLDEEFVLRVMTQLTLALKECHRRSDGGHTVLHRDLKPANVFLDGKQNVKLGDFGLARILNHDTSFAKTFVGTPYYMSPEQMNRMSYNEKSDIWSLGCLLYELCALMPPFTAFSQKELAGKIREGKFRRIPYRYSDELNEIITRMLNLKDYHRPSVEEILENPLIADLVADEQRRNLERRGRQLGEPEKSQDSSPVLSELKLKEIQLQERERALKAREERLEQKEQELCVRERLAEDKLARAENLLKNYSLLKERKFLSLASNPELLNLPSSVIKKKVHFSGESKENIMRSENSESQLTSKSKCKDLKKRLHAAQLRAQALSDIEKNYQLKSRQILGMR
# Tyrosine-protein kinase CSK, sequence (P41240 whole entry): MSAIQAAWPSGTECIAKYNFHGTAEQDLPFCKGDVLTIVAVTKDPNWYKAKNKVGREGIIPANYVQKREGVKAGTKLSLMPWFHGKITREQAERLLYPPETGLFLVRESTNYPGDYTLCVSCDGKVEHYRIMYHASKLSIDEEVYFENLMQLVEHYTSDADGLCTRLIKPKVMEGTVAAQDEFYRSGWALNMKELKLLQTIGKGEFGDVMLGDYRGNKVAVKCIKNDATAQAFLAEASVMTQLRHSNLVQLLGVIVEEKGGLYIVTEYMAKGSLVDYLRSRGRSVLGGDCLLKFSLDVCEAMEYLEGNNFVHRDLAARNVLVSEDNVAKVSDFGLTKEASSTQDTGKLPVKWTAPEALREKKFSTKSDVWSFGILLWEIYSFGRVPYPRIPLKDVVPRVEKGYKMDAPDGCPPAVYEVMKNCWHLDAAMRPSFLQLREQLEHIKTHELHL
# Serine/threonine-protein kinase PLK1, sequence (P53350 whole entry): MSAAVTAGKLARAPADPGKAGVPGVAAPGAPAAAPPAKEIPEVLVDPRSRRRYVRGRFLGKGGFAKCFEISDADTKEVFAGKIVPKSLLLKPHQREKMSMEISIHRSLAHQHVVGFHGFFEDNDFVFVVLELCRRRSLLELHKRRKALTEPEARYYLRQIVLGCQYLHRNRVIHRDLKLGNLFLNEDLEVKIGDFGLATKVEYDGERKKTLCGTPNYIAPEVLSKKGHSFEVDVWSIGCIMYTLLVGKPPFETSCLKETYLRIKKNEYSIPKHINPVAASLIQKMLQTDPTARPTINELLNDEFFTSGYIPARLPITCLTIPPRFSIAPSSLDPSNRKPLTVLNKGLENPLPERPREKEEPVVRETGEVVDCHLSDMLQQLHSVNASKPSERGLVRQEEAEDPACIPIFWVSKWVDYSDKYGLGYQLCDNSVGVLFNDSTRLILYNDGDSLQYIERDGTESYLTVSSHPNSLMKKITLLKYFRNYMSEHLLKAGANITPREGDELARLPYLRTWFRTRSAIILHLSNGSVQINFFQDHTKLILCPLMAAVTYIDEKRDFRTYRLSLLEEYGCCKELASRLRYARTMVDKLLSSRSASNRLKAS
# Tyrosine-protein kinase JAK3, sequence (P52333 whole entry): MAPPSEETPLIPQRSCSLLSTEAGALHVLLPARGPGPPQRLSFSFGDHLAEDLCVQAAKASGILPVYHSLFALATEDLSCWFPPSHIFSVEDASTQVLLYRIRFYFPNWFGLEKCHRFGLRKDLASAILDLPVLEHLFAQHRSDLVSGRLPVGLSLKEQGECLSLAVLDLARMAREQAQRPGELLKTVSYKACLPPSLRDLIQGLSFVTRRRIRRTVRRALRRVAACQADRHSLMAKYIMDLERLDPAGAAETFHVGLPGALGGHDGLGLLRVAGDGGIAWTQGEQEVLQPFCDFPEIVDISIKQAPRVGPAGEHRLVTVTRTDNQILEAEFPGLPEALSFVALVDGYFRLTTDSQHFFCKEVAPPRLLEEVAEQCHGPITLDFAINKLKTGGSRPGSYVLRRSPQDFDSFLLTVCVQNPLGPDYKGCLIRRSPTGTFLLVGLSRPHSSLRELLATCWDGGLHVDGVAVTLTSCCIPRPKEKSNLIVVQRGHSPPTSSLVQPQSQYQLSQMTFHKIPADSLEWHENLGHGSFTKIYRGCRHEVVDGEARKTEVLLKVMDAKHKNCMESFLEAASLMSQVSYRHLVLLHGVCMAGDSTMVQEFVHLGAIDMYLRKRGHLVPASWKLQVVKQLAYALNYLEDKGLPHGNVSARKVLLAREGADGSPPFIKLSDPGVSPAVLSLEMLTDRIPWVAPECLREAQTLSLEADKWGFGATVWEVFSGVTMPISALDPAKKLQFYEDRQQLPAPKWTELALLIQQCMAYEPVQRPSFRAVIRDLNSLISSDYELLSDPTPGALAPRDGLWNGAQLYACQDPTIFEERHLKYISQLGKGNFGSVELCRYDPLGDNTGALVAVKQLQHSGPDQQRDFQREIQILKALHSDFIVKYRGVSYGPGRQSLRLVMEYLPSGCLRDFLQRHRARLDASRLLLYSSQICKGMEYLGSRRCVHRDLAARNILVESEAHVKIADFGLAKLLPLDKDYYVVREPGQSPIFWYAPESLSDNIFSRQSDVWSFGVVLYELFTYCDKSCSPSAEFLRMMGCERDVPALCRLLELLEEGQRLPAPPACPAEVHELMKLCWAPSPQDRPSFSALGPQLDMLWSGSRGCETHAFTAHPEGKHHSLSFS
# Tyrosine-protein kinase Fer, sequence (P16591 whole entry): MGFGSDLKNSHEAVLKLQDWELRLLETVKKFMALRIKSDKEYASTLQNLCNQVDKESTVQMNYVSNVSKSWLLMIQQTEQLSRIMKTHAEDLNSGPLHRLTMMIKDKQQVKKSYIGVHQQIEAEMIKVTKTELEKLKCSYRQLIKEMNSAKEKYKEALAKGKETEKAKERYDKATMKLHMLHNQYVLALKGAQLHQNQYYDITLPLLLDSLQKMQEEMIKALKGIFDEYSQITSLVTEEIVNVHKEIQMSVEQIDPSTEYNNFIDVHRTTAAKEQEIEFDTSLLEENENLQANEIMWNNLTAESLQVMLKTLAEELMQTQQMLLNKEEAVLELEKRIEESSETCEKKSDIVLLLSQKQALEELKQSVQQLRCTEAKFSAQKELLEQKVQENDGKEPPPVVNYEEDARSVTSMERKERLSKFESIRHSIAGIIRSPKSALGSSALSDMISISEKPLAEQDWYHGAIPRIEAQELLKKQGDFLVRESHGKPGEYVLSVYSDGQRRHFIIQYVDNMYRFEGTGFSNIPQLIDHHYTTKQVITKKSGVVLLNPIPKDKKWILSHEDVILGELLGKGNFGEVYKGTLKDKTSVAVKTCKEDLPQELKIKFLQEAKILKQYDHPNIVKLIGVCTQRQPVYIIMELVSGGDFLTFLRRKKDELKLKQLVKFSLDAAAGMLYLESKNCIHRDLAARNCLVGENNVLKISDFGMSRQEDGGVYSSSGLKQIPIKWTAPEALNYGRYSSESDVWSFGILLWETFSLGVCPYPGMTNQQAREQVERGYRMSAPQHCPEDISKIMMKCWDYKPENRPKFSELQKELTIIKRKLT
# Tyrosine-protein kinase BTK, sequence (Q06187 whole entry, the tested form may be a part): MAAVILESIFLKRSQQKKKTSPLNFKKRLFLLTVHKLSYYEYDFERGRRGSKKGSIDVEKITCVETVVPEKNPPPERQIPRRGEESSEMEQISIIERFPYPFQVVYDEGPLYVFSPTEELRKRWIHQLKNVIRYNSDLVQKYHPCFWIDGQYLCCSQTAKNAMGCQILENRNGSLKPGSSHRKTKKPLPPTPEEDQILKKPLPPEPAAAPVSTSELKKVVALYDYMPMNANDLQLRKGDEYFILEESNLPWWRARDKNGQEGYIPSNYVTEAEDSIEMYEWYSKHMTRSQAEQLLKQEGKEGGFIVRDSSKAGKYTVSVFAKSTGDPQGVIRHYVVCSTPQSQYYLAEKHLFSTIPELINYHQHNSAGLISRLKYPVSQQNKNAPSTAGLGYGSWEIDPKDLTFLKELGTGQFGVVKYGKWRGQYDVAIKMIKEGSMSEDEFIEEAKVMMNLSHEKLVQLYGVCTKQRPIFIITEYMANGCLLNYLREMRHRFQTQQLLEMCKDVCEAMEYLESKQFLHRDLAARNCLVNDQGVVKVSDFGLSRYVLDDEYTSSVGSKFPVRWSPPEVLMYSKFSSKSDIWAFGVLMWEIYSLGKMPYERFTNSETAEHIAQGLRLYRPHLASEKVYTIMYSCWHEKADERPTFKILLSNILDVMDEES
# Tyrosine-protein kinase Yes, sequence (P07947 whole entry): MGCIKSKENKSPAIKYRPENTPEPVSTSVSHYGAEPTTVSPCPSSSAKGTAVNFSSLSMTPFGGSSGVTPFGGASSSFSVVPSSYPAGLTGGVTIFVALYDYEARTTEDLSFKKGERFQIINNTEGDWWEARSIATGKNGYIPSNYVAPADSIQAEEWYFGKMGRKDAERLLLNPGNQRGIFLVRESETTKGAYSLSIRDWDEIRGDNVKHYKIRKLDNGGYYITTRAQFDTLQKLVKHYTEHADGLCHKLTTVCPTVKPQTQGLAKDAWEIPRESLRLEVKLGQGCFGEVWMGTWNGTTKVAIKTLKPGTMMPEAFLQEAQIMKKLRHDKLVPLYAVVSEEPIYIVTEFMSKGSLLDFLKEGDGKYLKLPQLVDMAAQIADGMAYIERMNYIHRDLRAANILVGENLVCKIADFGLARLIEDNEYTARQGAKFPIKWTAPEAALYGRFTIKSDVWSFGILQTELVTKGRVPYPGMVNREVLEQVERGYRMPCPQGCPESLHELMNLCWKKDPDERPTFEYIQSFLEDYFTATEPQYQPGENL
smiles,measurement,setting,value
C=CS(=O)(=O)N1CCC[C@@H]1Cn1cc(-c2ccc3c(c2)OCO3)c2c(N)ncnc21,IC50,[1],0.0886 µM
same,Ratio IC50,Homo sapiens [2],158
same,IC50,[3],0.0573 µM
same,Ratio IC50,Homo sapiens [4],5.5
same,IC50,[5],> 10 µM
same,Ratio IC50,Homo sapiens [6],11.3
same,Ratio IC50,Homo sapiens [7],14.3
same,Ratio IC50,Homo sapiens [8],2.5
same,IC50,[9],> 10 µM
same,Ratio IC50,Homo sapiens [10],229
same,IC50,[11],0.195 µM
same,IC50,HCC827,0.014 µM
same,IC50,NCI-H1975,0.92 µM
same,IC50,[12],5.65 µM
same,IC50,[13],0.883 µM
same,Activity,Mus musculus,Non-Toxic
same,Ratio IC50,Homo sapiens [14],> 280
same,Ratio IC50,Homo sapiens [15],> 280
same,IC50,[16],5.91 µM
same,Ratio IC50,Homo sapiens [17],79.2
same,Ratio IC50,Homo sapiens [18],> 280
same,Ratio IC50,Homo sapiens [19],> 280
same,Ratio IC50,Homo sapiens [20],> 280
same,IC50,[21],> 10 µM
same,IC50,[22],> 10 µM
same,IC50,[23],8.16 µM
same,IC50,[24],2.83 µM
same,Ratio IC50,Homo sapiens [25],166
same,Ratio IC50,Homo sapiens [26],5.9
same,Ratio IC50,Homo sapiens [27],> 280
